This note sets out measurements from US10168342B2, “Lipid probes and uses thereof” (THE SCRIPPS RESEARCH INSTITUTE, priority 2015, dated 2019).

What all share (assay): isoTOP-ABPP mapping of AEA-DA-modified peptides in Neuro2a cells
Assay type in all cases: cell-based

For experiment [1], the target named is T1, AEA-DA-modified peptides in Neuro2a cells (Mus musculus, UniProt Q9DCC8).
T1 construct: endogenous in cells; host or cells: Neuro2a
The following applies: AEA-DA-modified peptide TOMM20 Q9DCC8 69-89, SEQ ID NO 115; probe 100 μM, 12 replicates. As for the experimental part: (§1) Experiments were performed as described above using the AEA-DA probe (100 μM) in 3.0 mL of DMEM (serum-free) and Neuro2A cells without (twelve replicates; ten biological; two technical). For the ligand competition study, cells were treated with the AEA-DA probe (50 μM) and DMSO or MJN228 (50 μM) treatment. Cells were harvested and processed as described above. Whole cell lysates (500 μL at 1.5 mg/mL) were processed for MS analysis using the previously described isoTOPABPP protocol (Speers and Cravatt, 2005). In brief, for global mapping of AEA-DA-modified peptides, proteomes were split into two fractions, which were subjected to click chemistry conditions with either light or heavy isotopically labeled TEV-tags. For the […] competition study, proteomes were subjected to click chemistry conditions with either light (DMSO) or heavy (MJN228-treated) TEV-tags. Light and heavy-tagged proteomes in each experiment were then combined, and, following enrichment of probe-labeled targets using streptavidin beads, proteins were digested on-bead with trypsin and remaining immobilized peptides released with a subsequent TEV protease digestion. The resulting probe-modified peptides were collected for MS analysis, which was performed as described above with differences in the salt bumps applied in the chromatographic gradients which were 0%, 30%, 60%, 90% and 100% NH4OAc (500 mM). The protein identification searches of the MS data were performed using the same software packages described above with the following changes applied to identify the peptides modified with AEA-DA and the cleaved TEV tag. All amino acids were considered as possible residues for modification. To facilitate the computational searches, sets of up to 3 amino acids were searched using ProLuCID and filtered with DTASelect as described above. The mass of the modification used to search for probe-modified peptides was +727.4745 m/z for the probe plus the light TEV-tag and +733.4831 m/z for the heavy counterpart. […] For global mapping experiments, AEA-DA-modified peptides were expected to show a ratio of “heavy” and “light” signals of ˜1.0 (0.5<ratio<2.0) and were required to have been detected in at least two of the twelve replicate experiments.
(§2) In some embodiments, the ligands are tested for their interaction to NUCB1 in cells. […] MJN228 inhibited lipid probe binding to NUCB1 at concentrations as low as 10 μM, with near-maximal inhibition observed at ˜25 μM (FIG. 16A). […] The site of arachidonoyl probe (and MJN228) binding to NUCB1 was mapped in cells, which was accomplished by treating Neuro2A cells with the AEA-DA probe (50 μM) in the presence of DMSO or MJN228 (50 μM), followed by UV irradiation, CuAAC conjugation of AEA-DA-labeled proteins to isotopically light (DMSO-treated cells) and heavy (MJN228-treated cells) azide-biotin tags featuring a TEV protease-cleavable linker, and LCMS/MS analysis using a previously described platform, termed isoTOP-ABPP, for mapping probe-modified peptides in proteomes (Speers and Cravatt, 2005). A AEA-DA labeled peptide was identified for NUCB1 (aa 53-68) in DMSO-treated cells and the signals for this peptide were substantially (>5-fold) reduced in MJN228-treated cells (FIG. 15C). This AEA-DA labeling site was confirmed using recombinant, purified hNUCB1 and tandem MS analysis which narrowed down the site of probe modification to His67 (FIGS. 16B and 16C).

The target of experiment [2] is T2, AEA-DA-modified peptides in Neuro2a cells (Mus musculus, UniProt Q9DCZ4).
T2 construct: endogenous in cells; host or cells: Neuro2a
The settings on record: AEA-DA-modified peptide APOO Q9DCZ4 187-197, SEQ ID NO 9; probe 100 μM, 12 replicates. How it is done:
as §1, §2

The target of experiment [3] is T3, AEA-DA-modified peptides in Neuro2a cells (Mus musculus, UniProt P09103).
T3 construct: endogenous in cells; host or cells: Neuro2a
The settings on record: probe 100 μM, 12 replicates. How it is done: as §1, §2

Experiment [4] deals with T4, AEA-DA-modified peptides in Neuro2a cells (Mus musculus, UniProt P56812).
T4 construct: endogenous in cells; host or cells: Neuro2a
The settings on record: AEA-DA-modified peptide PDCD5 P56812 69-80, SEQ ID NO 80; probe 100 μM, 12 replicates. How it is done:
as §1, §2

For experiment [5], the target named is T5, AEA-DA-modified peptides in Neuro2a cells (Mus musculus, UniProt Q8BJ03).
T5 construct: endogenous in cells; host or cells: Neuro2a
The settings on record: AEA-DA-modified peptide COX15 Q8BJ03 317-331, SEQ ID NO 25; probe 100 μM, 12 replicates. As for the experimental part:
as §1, §2

Experiment [6] addresses T6, AEA-DA-modified peptides in Neuro2a cells (Mus musculus, UniProt Q61335).
T6 construct: endogenous in cells; host or cells: Neuro2a
The settings on record: AEA-DA-modified peptide BCAP31 Q61335 73-80, SEQ ID NO 21; probe 100 μM, 12 replicates. How it is done: as §1, §2

Experiment [7] has as its target T7, AEA-DA-modified peptides in Neuro2a cells (Mus musculus, UniProt Q99K48).
T7 construct: endogenous in cells; host or cells: Neuro2a
The following applies: AEA-DA-modified peptide NONO Q99K48 122-138, SEQ ID NO 69; probe 100 μM, 12 replicates. How it is done: as §1, §2

Experiment [8] deals with T8, AEA-DA-modified peptides in Neuro2a cells (Mus musculus, UniProt P84084).
T8 construct: endogenous in cells; host or cells: Neuro2a
The following applies: AEA-DA-modified peptide ARF5 P84084 39-60, SEQ ID NO 14; probe 100 μM, 12 replicates. How it is done: as §1, §2

Experiment [9] addresses T9, AEA-DA-modified peptides in Neuro2a cells (Mus musculus, UniProt Q99JY4).
T9 construct: endogenous in cells; host or cells: Neuro2a
The following applies: AEA-DA-modified peptide TRABD Q99JY4 234-253, SEQ ID NO 116; probe 100 μM, 12 replicates. How it is done: as §1, §2

Experiment [10] deals with T10, AEA-DA-modified peptides in Neuro2a cells (Mus musculus, UniProt Q99P72).
T10 construct: endogenous in cells; host or cells: Neuro2a
The settings on record: AEA-DA-modified peptide RTN4 Q99P72 1045-106, SEQ ID NO 94; probe 100 μM, 12 replicates. As for the experimental part: as §1, §2

Experiment [11] concerns the target T11, AEA-DA-modified peptides in Neuro2a cells (Mus musculus, UniProt Q99J47).
T11 construct: endogenous in cells; host or cells: Neuro2a
The following applies: AEA-DA-modified peptide DHRS7B Q99J47 284-300, SEQ ID NO 31; probe 100 μM, 12 replicates. How it is done:
as §1, §2

The target of experiment [12] is T12, AEA-DA-modified peptides in Neuro2a cells (Mus musculus, UniProt Q60864).
T12 construct: endogenous in cells; host or cells: Neuro2a
The settings on record: AEA-DA-modified peptide STIP1 Q60864 506-514, SEQ ID NO 106; probe 100 μM, 12 replicates. How it is done: as §1, §2

T3 sequence (P09103 20-509): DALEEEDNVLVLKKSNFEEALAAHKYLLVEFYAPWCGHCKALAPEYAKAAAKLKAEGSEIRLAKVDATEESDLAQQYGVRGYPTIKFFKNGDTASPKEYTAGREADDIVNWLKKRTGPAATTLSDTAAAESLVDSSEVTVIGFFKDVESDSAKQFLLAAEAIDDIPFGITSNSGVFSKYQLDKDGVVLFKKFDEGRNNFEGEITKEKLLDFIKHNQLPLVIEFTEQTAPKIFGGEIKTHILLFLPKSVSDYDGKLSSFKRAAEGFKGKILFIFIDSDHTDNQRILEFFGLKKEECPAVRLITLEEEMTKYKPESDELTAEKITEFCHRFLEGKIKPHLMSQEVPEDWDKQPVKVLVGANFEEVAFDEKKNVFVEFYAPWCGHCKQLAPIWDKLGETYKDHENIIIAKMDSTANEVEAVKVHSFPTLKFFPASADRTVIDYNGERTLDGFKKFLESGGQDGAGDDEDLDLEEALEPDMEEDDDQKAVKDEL
T9 sequence (Q99JY4 whole entry): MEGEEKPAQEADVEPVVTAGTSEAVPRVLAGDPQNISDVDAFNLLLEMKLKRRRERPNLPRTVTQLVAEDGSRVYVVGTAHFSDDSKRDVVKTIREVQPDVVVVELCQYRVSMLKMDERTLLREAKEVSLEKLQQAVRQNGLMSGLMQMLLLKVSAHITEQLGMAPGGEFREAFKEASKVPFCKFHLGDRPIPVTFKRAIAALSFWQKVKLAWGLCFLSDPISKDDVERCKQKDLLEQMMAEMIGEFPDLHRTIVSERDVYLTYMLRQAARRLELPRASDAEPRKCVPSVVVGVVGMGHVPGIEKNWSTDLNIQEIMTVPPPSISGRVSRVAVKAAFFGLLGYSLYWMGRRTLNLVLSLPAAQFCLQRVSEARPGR
T4 sequence (P56812 whole entry): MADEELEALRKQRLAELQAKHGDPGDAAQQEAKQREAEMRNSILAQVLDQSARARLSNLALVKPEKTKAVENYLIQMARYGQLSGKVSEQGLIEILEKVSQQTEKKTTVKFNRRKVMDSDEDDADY
T1 sequence (Q9DCC8 whole entry): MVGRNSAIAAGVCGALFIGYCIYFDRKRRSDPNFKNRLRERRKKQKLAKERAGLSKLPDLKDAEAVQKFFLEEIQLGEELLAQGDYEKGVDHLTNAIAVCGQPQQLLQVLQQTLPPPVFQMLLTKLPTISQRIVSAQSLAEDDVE
T5 sequence (Q8BJ03 whole entry): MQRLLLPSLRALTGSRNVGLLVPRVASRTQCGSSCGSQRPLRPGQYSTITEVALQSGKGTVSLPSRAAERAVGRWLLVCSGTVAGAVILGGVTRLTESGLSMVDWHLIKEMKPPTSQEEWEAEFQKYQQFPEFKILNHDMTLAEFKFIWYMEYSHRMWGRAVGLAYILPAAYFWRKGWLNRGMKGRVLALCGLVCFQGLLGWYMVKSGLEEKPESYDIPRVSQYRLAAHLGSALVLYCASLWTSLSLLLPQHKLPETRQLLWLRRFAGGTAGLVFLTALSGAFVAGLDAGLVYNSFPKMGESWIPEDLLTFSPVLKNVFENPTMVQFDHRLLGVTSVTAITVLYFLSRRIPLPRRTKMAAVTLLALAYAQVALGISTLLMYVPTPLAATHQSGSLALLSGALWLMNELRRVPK
T10 sequence (Q99P72 whole entry): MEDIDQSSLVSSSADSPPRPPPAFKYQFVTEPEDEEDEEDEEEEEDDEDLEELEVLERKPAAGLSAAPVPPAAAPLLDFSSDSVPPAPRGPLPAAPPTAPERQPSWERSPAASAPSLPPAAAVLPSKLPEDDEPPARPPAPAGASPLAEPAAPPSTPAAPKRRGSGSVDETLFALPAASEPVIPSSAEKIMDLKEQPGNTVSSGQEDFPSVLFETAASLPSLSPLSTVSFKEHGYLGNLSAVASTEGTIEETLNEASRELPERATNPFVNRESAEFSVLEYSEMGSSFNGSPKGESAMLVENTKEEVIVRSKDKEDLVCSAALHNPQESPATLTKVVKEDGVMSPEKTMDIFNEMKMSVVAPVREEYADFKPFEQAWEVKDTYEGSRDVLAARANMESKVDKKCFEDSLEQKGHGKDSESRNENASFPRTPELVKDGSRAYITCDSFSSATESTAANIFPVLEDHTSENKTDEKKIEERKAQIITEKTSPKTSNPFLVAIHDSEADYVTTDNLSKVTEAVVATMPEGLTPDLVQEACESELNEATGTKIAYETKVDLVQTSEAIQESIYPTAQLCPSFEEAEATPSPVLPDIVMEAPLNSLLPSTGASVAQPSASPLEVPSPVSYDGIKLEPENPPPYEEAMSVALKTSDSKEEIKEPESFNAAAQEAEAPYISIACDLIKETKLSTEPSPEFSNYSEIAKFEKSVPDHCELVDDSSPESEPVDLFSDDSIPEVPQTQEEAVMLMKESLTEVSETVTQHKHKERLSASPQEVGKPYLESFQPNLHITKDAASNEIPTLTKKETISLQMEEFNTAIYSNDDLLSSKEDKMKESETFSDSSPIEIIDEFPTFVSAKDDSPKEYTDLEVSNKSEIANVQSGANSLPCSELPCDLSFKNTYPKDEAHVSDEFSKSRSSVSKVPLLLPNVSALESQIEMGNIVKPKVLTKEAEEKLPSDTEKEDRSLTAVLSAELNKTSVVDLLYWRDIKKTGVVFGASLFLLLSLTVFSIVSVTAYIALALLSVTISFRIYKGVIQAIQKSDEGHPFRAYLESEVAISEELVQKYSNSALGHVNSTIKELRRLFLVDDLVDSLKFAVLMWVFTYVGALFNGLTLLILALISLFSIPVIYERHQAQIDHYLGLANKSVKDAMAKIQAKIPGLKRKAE
T8 sequence (P84084 whole entry): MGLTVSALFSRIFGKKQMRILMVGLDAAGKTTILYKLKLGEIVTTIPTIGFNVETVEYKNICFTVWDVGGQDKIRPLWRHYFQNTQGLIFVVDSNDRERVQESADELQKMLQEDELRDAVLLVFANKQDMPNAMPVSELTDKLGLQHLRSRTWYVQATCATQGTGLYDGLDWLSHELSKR
T7 sequence (Q99K48 whole entry): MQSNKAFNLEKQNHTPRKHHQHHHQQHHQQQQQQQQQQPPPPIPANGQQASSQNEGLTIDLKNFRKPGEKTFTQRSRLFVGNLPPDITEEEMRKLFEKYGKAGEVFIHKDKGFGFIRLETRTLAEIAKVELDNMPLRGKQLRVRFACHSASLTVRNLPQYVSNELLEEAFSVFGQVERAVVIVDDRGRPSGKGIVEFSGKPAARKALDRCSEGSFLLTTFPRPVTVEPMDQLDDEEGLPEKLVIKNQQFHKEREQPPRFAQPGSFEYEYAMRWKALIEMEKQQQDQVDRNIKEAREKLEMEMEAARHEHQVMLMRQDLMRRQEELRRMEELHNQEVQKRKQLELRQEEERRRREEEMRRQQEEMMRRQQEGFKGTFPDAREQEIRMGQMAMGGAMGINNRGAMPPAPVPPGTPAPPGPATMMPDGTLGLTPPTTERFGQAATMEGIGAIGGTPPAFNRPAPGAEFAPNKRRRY
T2 sequence (Q9DCZ4 24-198): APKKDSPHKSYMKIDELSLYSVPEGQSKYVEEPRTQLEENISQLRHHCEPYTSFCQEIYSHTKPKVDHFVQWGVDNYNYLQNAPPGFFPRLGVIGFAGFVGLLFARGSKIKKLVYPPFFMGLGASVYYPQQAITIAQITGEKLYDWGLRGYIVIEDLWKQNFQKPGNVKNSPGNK
T11 sequence (Q99J47 whole entry): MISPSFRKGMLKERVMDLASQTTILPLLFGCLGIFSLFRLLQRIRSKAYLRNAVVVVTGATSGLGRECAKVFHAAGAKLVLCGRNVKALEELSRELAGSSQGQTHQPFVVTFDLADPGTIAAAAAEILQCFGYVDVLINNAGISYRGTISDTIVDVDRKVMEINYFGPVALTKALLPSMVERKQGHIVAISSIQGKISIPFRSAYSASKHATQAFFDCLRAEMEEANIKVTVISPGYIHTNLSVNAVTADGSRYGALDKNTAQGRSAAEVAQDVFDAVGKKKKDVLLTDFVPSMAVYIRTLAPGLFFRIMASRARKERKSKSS
T6 sequence (Q61335 whole entry): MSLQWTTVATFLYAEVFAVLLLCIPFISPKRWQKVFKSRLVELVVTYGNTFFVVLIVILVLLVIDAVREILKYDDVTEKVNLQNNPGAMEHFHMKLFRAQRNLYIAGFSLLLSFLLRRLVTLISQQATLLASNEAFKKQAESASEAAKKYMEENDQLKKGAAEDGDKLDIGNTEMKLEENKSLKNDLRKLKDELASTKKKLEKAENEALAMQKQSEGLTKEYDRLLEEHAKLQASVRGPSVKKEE

`C#CCCCC1(CC/C=C\C/C=C\C/C=C\CCCC(=O)NCCO)N=N1` [AEA-DA, (5Z,8Z,11Z)-N-(2-hydroxyethyl)-14-(3-(pent-4-yn-1-yl)-3H-diazirin-3-yl)tetradeca-5,8,11-trienamide]: the Times observed in experiment [1] is recorded as 7; in [2], 2; in [3] (AEA-DA-modified peptide P4HB P09103 135-165, SEQ ID NO 77) it was 3; in experiment [3] (AEA-DA-modified peptide P4HB P09103 233-250, SEQ ID NO 78), 10; in [4], 5; in [5], 2. The Times observed is given as 2 in experiment [6]; 3 in experiment [7]; 9 in experiment [8]; 4 in experiment [9]; 7 in experiment [10]; 2 in [11]. The Times observed in [12] is 3.
